Structures can show the parent of a compound that is named as a salt.
Legend:
[1] = Plasma concentration of indomethacin during multiple percutaneous dosing of ointment to rats; type: in vivo, male Wistar rats; details: 0.14 g per 1.0×1.0 cm
Procedure: The hair of the abdominal area of male Wistar rats weighing 250-300 g was removed in the same manner as described in Example 6. […] The rats were fixed in the Bollman cages for 24 hours. The ointment remained in contact with the skin for 24 hours, and then the unabsorbed ointment was wiped off. Subsequently, second and third applications of the ointment (0.14 g, 1.0×1.0 cm area) were made at different positions on the abdomen similar to the first application. The drug concentrations were determined by the same procedure as described in Example 6. FIG. 2 depicts the plasma indomethacin concentrations after the topical application of these ointments.

[2] = tested on: carrageenan-induced paw edema; experiment: Carrageenan-induced edema in hindpaw of rat; type: in vivo, male Wistar rats; details: 0.14 g gel ointment on abdominal skin 6 h before carrageenan
Procedure: (§1) Experimental carrageenan edema was induced in groups of six male Wistar rats weighing 150-160 g. […] The gel without the drug was similarly applied to the control group. The treated area was immediately covered by aluminum foil and adhesive tape. Six hours later, 1% carrageenan solution was injected subcutaneously into the sole of the right hindpaw. The volumes of both hindpaw were measured hourly using a plethysmometer and the edema volume was calculated from the difference between the injected and non-injected paws. FIG. 3 indicates the effect on the carrageenan-induced paw edema of these ointments applied topically.

[3] = Absorption of the active ingredient from other bases or with other promoters; details: calcium thioglycolate as absorption promoter
shaved back skin = tested on: shaved back skin; parameters: species or system male rabbits; details: rabbit, in vivo
Procedure: The evaluation of skin reactions was done by the erythema and edema scores 24 and 72 hours after application.

[4] = tested on: adjuvant arthritis induced with M. butyricum; experiment: Adjuvant arthritis induced with M. butyricum; type: in vivo, male Wistar rats; details: for Inhibition: adjuvant arthritis; for Inhibition / Foot volume: day 16, mean ± S.D. of 6 rats; for Foot volume: 0.14 g gel ointment every other day from day 11 to 15, *p <0.05 vs control
Procedure: as §1
M. butyricum (Difco Lab., USA) suspended in paraffin oil was injected into the sole of right hindpaw of male Wistar rats weighing 150-160 g. […] The edema volumes were calculated by measuring the volumes of both hindpaws on day 16, according to the same procedure as described in Example 9.

in vivo = experiment: in vivo; parameters: species or system male Wistar rats; details: rat, topical or ocular; for AUC(0-t) at 36 h: AUC (0-36 hours)
Excerpt: In Table 1, the results obtained are shown. The calcium salts of the anti-inflammatory drugs in the ointment were absorbed to a much greater degree than the indomethacin (Rp. 1).

## COc1ccc2c(c1)c(CC(=O)O)c(C)n2C(=O)c1ccc(Cl)cc1 [Indomethacin calcium, Calcium salt of indomethacin]
[1]; three 24 h applications
  absorption through the skin compared with indomethacin: readily and quickly absorbed through the skin compared with indomethacin
[1]; multiple dosing, vs indomethacin ointment
  plasma levels after application of the gel ointment: much higher plasma levels
[2]
  inhibitory effect on carrageenan-induced paw edema: significantly higher inhibitory effect
[3]
  absorption of the active ingredient on addition of calcium thioglycolate: dramatically decrease the absorption
Shaved back skin
  erythema produced by the ointment: only slight erythema
  irritation produced by the ointment: nearly negligible
[4]
  Inhibition: 51.0 ± 7.6%
  Foot volume: 2.38 ± 0.12 mL
[4]; compared with indomethacin ointment
  inhibitory effect on adjuvant arthritis: significant inhibitory effect, to the same extent as the indomethacin ointment
In vivo
  Bioavailability: 70.3 ± 4.1%
  AUC (0-36 hours): 473.4 ± 16.5 µg·h/mL

## O=C(O)COc1nn(Cc2ccccc2)c2ccccc12 [Bendazac calcium]
In vivo
  AUC(0-t) at 36 h: 460 ± 31.5 µg·h/mL

## O=C(O)c1ccccc1Nc1cccc(C(F)(F)F)c1 [Flufenamate calcium]
In vivo
  AUC(0-t) at 36 h: 463 ± 18.9 µg·h/mL

## COc1ccc2c(c1)c(CC(=O)O)c(C)n2C(=O)c1ccc(Cl)cc1 [Indomethacin, indomethacin, reference compound]
Shaved back skin
  erythema produced by the ointment: only slight erythema
  irritation produced by the ointment: nearly negligible
[4]
  Inhibition: 55.4 ± 10.5%
  Foot volume: 2.32 ± 0.16 mL
In vivo
  Bioavailability: 7.3 ± 1.4%
  AUC (0-36 hours): 50.4 ± 7.8 µg·h/mL

## O=C(O)Cc1ccccc1Nc1c(Cl)cccc1Cl [Diclofenac calcium]
In vivo
  AUC(0-t) at 36 h: 465 ± 32.4 µg·h/mL

## Cc1cccc(Nc2ccccc2C(=O)O)c1C [Mefenamate calcium, Calcium mefenamate]
In vivo
  AUC(0-t) at 36 h: 470 ± 40.5 µg·h/mL
